According to PMC10786919, “Design-rules for stapled peptides with in vivo activity and their application to Mdm2/X antagonists” (Nature Communications, 2024):
Values after ≈ are worked out from the molar mass of the structure shown. Like-named read-outs stand apart in the source and are kept apart here. Positions of bridges follow the written chain, without caps; N, C: chain ends. Non-standard residues stand in square brackets, D forms with d. Residues, ends and D or L forms follow the SMILES beside them. R8 = C=CCCCCCC[C@@](C)(N)C(=O)O; Cba = N[C@@H](CC1CCC1)C(=O)O; S5 = C=CCCC[C@](C)(N)C(=O)O

Assays:
[1] = Lactate dehydrogenase (LDH) release assay; format: cell-based; conditions: LDH: Cytotoxicity assay EC50
Procedure, shortened: (§1)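 LDH release, fluorometric membrane-integrity read-out; HCT116 with stable p53-responsive β-lactamase reporter; 8000 cells/well; 0.5% DMSO final; geometric mean, n≥3 biological replicates.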

HCT116 cells = experiment: Lactate dehydrogenase (LDH) release assay; format: cell-based
Procedure, shortened: as §1

[2] = Experimental LogD (partition coefficient)
[3] = Solubility assay (kinetic solubility, PBS pH 7); format: physicochemical; conditions: for solubility kinetic: pH 7, aqueous buffer, kinetic from dmso stock
Procedure, shortened: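 Values derive from peak-area ratios of sample versus a 100 µM standard, scaled by that standard's concentration.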

[4] = tested on: p53 responsive β-lactamase reporter in HCT116 cells; experiment: cells; format: cell-based; conditions: for EC50: Homo sapiens, read-out: p53 reporter assay EC50
Procedure, shortened: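 Read-out used the ToxBLAzer Dual Screen for β-lactamase driven by a stably integrated p53-responsive reporter. Assay: 8000 HCT116 cells per well at 0.5% final DMSO. Reported numbers are geometric means over a minimum of three biological replicates.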

[5] = tested on: Jump-In T-REx CHO-K1 BLA cells; experiment: cells; format: cell-based; conditions: for EC50: read-out: TETCHO: Counterscreen EC50
[6] = not stated, Partition Coeff LogD
[7] = pH 7, PBS, read-out: Solubility

Row | SMILES | EC50 [1] [µM] | EPSA (physchem) [A^2] | logD [2, 6] | solubility kinetic [3, 7] [µM] | further results
1 | CC(=O)N[C@@H](CC(C)C)C(=O)N[C@H](C(=O)N[C@@H](Cc1ccccc1)C(=O)N[C@]1(C)CCCCCCC=CCCC[C@@](C)(C(=O)N[C@@H](CO)C(=O)N[C@@H](C)C(=O)N[C@@H](C)C(N)=O)NC(=O)[C@H](CC2CCC2)NC(=O)[C@H](CC(C)C)NC(=O)[C@H](CCCNC(=N)N)NC(=O)[C@H](Cc2c[nH]c3ccccc23)NC(=O)[C@H](Cc2ccc(O)cc2)NC(=O)[C@H](CCC(=O)O)NC1=O)[C@@H](C)O [MP-194] (Ac-LTF[R8]EYWRL[Cba][S5]SAA-NH2; staple 4-11) | > 50 | 210 | 2.87 |  | LDH: Cytotoxicity assay % Effect (HCT116 cells): -1.06%; Solubility ([3]; pH 7, PBS): Poorly Behaved
2 | CC(=O)N[C@@H](CC(C)C)C(=O)N[C@H](C(=O)N[C@@H](Cc1ccccc1)C(=O)NC(C)(C)C(=O)N[C@@H](CCC(=O)O)C(=O)N[C@@H](Cc1ccc(O)cc1)C(=O)N[C@@H](Cc1c[nH]c2ccccc12)C(=O)N[C@@H](CCC(N)=O)C(=O)N[C@@H](CC(C)C)C(=O)N[C@@H](CC1CCC1)C(=O)NC(C)(C)C(=O)N[C@@H](CO)C(=O)N[C@@H](C)C(=O)N[C@@H](C)C(N)=O)[C@@H](C)O [MP-7189] | > 50 | 199 | 2.12 | 24 (≈ 40 µg/mL) | 
3 | CC(=O)N[C@@H](Cc1ccccc1)C(=O)N[C@]1(C)CCCCCCC=CCCC[C@@](C)(C(=O)N[C@@H](CO)C(=O)N[C@@H](C)C(=O)N[C@@H](C)C(N)=O)NC(=O)[C@H](CC2CCC2)NC(=O)[C@H](CC(C)C)NC(=O)[C@H](CCC(N)=O)NC(=O)[C@H](Cc2c[nH]c3ccccc23)NC(=O)[C@H](Cc2ccc(O)cc2)NC(=O)[C@H](CCC(=O)O)NC1=O [MP-1202] (Ac-F[R8]EYWQL[Cba][S5]SAA-NH2; staple 2-9) | > 50 | 214 | 2.59 | 15 (≈ 23.6 µg/mL) | 
4 | CC(=O)N[C@@H](CCCNC(=N)N)C(=O)N[C@H](C(=O)N[C@@H](Cc1ccccc1)C(=O)N[C@]1(C)CCCCCCC=CCCC[C@@](C)(C(=O)N[C@@H](CO)C(=O)N[C@@H](C)C(=O)N[C@@H](C)C(N)=O)NC(=O)[C@H](CC2CCC2)NC(=O)[C@H](CC(C)C)NC(=O)[C@H](CCC(N)=O)NC(=O)[C@H](Cc2c[nH]c3ccccc23)NC(=O)[C@H](Cc2ccc(O)cc2)NC(=O)[C@H](CCC(=O)O)NC1=O)[C@@H](C)O [MP-191] (Ac-RTF[R8]EYWQL[Cba][S5]SAA-NH2; staple 4-11) | > 50 | 222 | 2.72 | 3 (≈ 5.49 µg/mL) | 
5 | CC(=O)N[C@@H](CC(C)C)C(=O)N[C@@H](CCCNC(=N)N)C(=O)N[C@@H](Cc1ccccc1)C(=O)N[C@]1(C)CCCCCCC=CCCC[C@@](C)(C(=O)N[C@@H](CO)C(=O)N[C@@H](C)C(=O)N[C@@H](C)C(N)=O)NC(=O)[C@H](CC2CCC2)NC(=O)[C@H](CC(C)C)NC(=O)[C@H](CCC(N)=O)NC(=O)[C@H](Cc2c[nH]c3ccccc23)NC(=O)[C@H](Cc2ccc(O)cc2)NC(=O)[C@H](CCC(=O)O)NC1=O [MP-1192] (Ac-LRF[R8]EYWQL[Cba][S5]SAA-NH2; staple 4-11) | > 50 | 220 | 2.79 | 3 (≈ 5.53 µg/mL) | 
6 | CC(=O)N[C@@H](C)C(=O)N[C@@H](C)C(=O)N[C@@H](Cc1ccccc1)C(=O)N[C@]1(C)CCCCCCC=CCCC[C@@](C)(C(=O)N[C@@H](CO)C(=O)N[C@@H](C)C(=O)N[C@@H](C)C(N)=O)NC(=O)[C@H](CC2CCC2)NC(=O)[C@H](C)NC(=O)[C@H](C)NC(=O)[C@H](Cc2c[nH]c3ccccc23)NC(=O)[C@H](Cc2ccc(O)cc2)NC(=O)[C@H](CCC(=O)O)NC1=O [MP-1207] (Ac-AAF[R8]EYWAA[Cba][S5]SAA-NH2; staple 4-11) | > 50 | 224 | 2.91 | 171 (≈ 276 µg/mL) | 
7 | CC(=O)N[C@@H](CC(C)C)C(=O)N[C@H](C(=O)N[C@@H](Cc1ccccc1)C(=O)N[C@]1(C)CCCCCCC=CCCC[C@@](C)(C(=O)N[C@@H](CCCNC(=N)N)C(=O)N[C@@H](C)C(=O)N[C@@H](C)C(N)=O)NC(=O)[C@H](CC2CCC2)NC(=O)[C@H](CC(C)C)NC(=O)[C@H](CCC(N)=O)NC(=O)[C@H](Cc2c[nH]c3ccccc23)NC(=O)[C@H](Cc2ccc(O)cc2)NC(=O)[C@H](CCC(=O)O)NC1=O)[C@@H](C)O [MP-196] (Ac-LTF[R8]EYWQL[Cba][S5]RAA-NH2; staple 4-11) | > 50 | 214 | 2.77 | 3 (≈ 5.57 µg/mL) | 
8 | CC(=O)N[C@@H](Cc1c[nH]cn1)C(=O)N[C@H](C(=O)N[C@@H](Cc1ccccc1)C(=O)N[C@]1(C)CCCCCCC=CCCC[C@@](C)(C(=O)N[C@@H](CO)C(=O)N[C@@H](C)C(=O)N[C@@H](C)C(N)=O)NC(=O)[C@H](CC2CCC2)NC(=O)[C@H](CC(C)C)NC(=O)[C@H](CCC(N)=O)NC(=O)[C@H](Cc2c[nH]c3ccccc23)NC(=O)[C@H](Cc2ccc(O)cc2)NC(=O)[C@H](CCC(=O)O)NC1=O)[C@@H](C)O [MP-197, ATSP-7041 (L1H)] (Ac-HTF[R8]EYWQL[Cba][S5]SAA-NH2; staple 4-11) | > 50 | 222 | 2.56 | 17 (≈ 30.8 µg/mL) | 
9 | CC(=O)N[C@@H](CC(C)C)C(=O)N[C@H](C(=O)N[C@@H](Cc1ccccc1)C(=O)N[C@]1(C)CCCCCCC=CCCC[C@@](C)(C(=O)N[C@@H](CO)C(=O)N[C@@H](C)C(=O)N[C@@H](C)C(N)=O)NC(=O)[C@H](CC2CCC2)NC(=O)[C@H](Cc2c[nH]cn2)NC(=O)[C@H](CCC(N)=O)NC(=O)[C@H](Cc2c[nH]c3ccccc23)NC(=O)[C@H](Cc2ccc(O)cc2)NC(=O)[C@H](CCC(=O)O)NC1=O)[C@@H](C)O [MP-200, ATSP-7041 (L9H)] (Ac-LTF[R8]EYWQH[Cba][S5]SAA-NH2; staple 4-11) | > 50 | 219 | 2.69 | 94.5 (≈ 171 µg/mL) | 
10 | CC(C)[C@@H](CS(=O)(=O)C(C)C)N1C(=O)[C@@](C)(CC(=O)O)C[C@H](c2cccc(Cl)c2)[C@H]1c1ccc(Cl)cc1 [AMG232] |  |  |  |  | LDH: Cytotoxicity assay % Effect (HCT116 cells; 0% FBS 4Hr): -4.2%; LDH: Cytotoxicity assay % Effect (HCT116 cells; 10% FBS 4Hr): -12.8%; LDH: Cytotoxicity assay % Effect (HCT116 cells; 10% FBS 16Hr): -18.8%; logD [2]: 2.25; solubility kinetic [3]: 138 µM (≈ 78.5 µg/mL); p53 reporter assay % Effect ([4]; 0% FBS 4Hr): 95.1%; p53 reporter assay % Effect ([4]; 10% FBS 4Hr): 82.7%; p53 reporter assay % Effect ([4]; 10% FBS 16Hr): 83.6%; EC50 ([4]; HCT-116, 4 h, 0% FBS 4Hr): 0.0116 µM; EC50 ([4]; HCT-116, 4 h, 10% FBS 4Hr): 0.0742 µM; EC50 ([4]; HCT-116, 16 h, 10% FBS 16Hr): 0.255 µM; TETCHO: Counterscreen % Effect ([5]; 0% FBS 4Hr): 72.2%; TETCHO: Counterscreen % Effect ([5]; 10% FBS 4Hr): 30.6%; TETCHO: Counterscreen % Effect ([5]; 10% FBS 16Hr): -10.3%; EC50 ([5]; T-REx-CHO-K1, 4 h, 0% FBS 4Hr): 45.6 µM; EC50 ([5]; T-REx-CHO-K1, 4 h, 10% FBS 4Hr): > 50.4 µM; EC50 ([5]; T-REx-CHO-K1, 16 h, 10% FBS 16Hr): > 50.4 µM
11 | CC(=O)N[C@@H](CC(C)C)C(=O)N[C@H](C(=O)N[C@@H](Cc1ccccc1)C(=O)N[C@]1(C)CCCCCCC=CCCC[C@@](C)(C(=O)N[C@@H](CO)C(=O)N[C@@H](C)C(=O)N[C@@H](C)C(N)=O)NC(=O)[C@H](CC2CCC2)NC(=O)[C@H](CCCNC(=N)N)NC(=O)[C@H](CCC(N)=O)NC(=O)[C@H](Cc2c[nH]c3ccccc23)NC(=O)[C@H](Cc2ccc(O)cc2)NC(=O)[C@H](CCC(=O)O)NC1=O)[C@@H](C)O [MP-195] (Ac-LTF[R8]EYWQR[Cba][S5]SAA-NH2; staple 4-11) | > 50 | 216 | 2.87 | 3 (≈ 5.49 µg/mL) | 
12 | CC(=O)N[C@@H](Cc1ccccc1)C(=O)N[C@]1(C)CCCCCCC=CCCC[C@@](C)(C(=O)N[C@@H](CO)C(N)=O)NC(=O)[C@H](CC2CCC2)NC(=O)[C@H](CC(C)C)NC(=O)[C@H](CCC(N)=O)NC(=O)[C@H](Cc2c[nH]c3ccccc23)NC(=O)[C@H](Cc2ccc(O)cc2)NC(=O)[C@H](CCC(=O)O)NC1=O [MP-203] (Ac-F[R8]EYWQL[Cba][S5]S-NH2; staple 2-9) | > 50 | 213 | 2.61 | 96 (≈ 137 µg/mL) | 
13 | CC(=O)N[C@@H](CC(C)C)C(=O)N[C@H](C(=O)N[C@@H](Cc1ccccc1)C(=O)N[C@]1(C)CCCCCCC=CCCC[C@@](C)(C(=O)N[C@@H](CO)C(N)=O)NC(=O)[C@H](CC2CCC2)NC(=O)[C@H](CC(C)C)NC(=O)[C@H](CCC(N)=O)NC(=O)[C@H](Cc2c[nH]c3ccccc23)NC(=O)[C@H](Cc2ccc(O)cc2)NC(=O)[C@H](CCC(=O)O)NC1=O)[C@@H](C)O [MP-204] (Ac-LTF[R8]EYWQL[Cba][S5]S-NH2; staple 4-11) | > 50 | 216 | 2.81 | 15 (≈ 24.7 µg/mL) | 
